Data published in PMC8615111, “Phenolic Thiazoles with Antioxidant and Antiradical Activity. Synthesis, In Vitro Evaluation, Toxicity, Electrochemical Behavior, Quantum Studies and Antimicrobial Screening” (Antioxidants, 2021).
Like-named read-outs stand apart in the source and are kept apart here. Marks after values point to notes of the source that are not given here.

Columns and labels:
[1] = parameters: method as in doi:10.1016/j.molstruc.2021.131278; conditions: cited from earlier work
[2] = parameters: method as in doi:10.1016/j.molstruc.2021.131278; conditions: cited from earlier work; remark: listed apart in the source
[3] = parameters: method as in doi:10.1016/j.molstruc.2021.131278; conditions: cited from earlier work; remark: listed apart in the source
[4] = Ferric ions (Fe^3+) reducing antioxidant power by cyclic voltammetry
Description: The evaluated compounds’ stock solutions used were prepared at a concentration of 5 mM. To test their redox properties, dilutions of 0.5 mM and 2 mM were prepared in 0.1 M HClO4 electrolyte (pH = 1.2). Screen-printed electrodes (SPEs; Metrohm DropSens, Oviedo, Spain) (planar electrodes) with graphite and gold working electrodes were used. Cyclic voltammetry (CV) and differential pulse voltammetry (DPV) were the electrochemical methods applied. The experimental conditions for each test are mentioned near the corresponding data (Appendix A).
(§1) The antioxidant properties were evaluated in terms of their activity against some free radicals, and other compounds reported in the literature, relevant for this purpose, such as: • ferric ions (Fe^3+)—used to test the reduction of the antioxidant character of the compounds; • DPPH˙ free radical– used to test the scavenging effect of the compounds on this radical; • hydrogen peroxide (H2O2)—used to test the scavenging effect of the synthesized molecules on this compound; • 2,2,6,6-tetramethylpiperidinyl-1-oxy (TEMPO)—used to test the scavenging effect of the synthesized molecules on this compound.
This method is based on the evaluation of the influence of the compound measured by the direct reduction of Fe[(CN)6]^3− to […]. This assay is based on the reduction of Fe^3+ to Fe^2+ due to the action of antioxidants. Based on the electrochemical behavior of the studied compounds, the interaction of Fe^3+ was followed by cyclic voltammetry (CV) via the possible changes of redox peaks characteristic for Fe^3+/Fe^2+ transition after the interaction with antioxidants (if any).
From the voltammogram of potassium ferricyanide it can be observed that the one-electron transfer process Fe^3+/Fe^2+ occurs at 0.247 V/ 0.150 V in acidic media (red) (Figure A1; Table A1).
Each compound presents its characteristic peaks (blue line in each figure).

[5] = test system: HaCaT cells; assay: HaCaT cells integrity, acridine orange staining; type: cell-based, human; conditions: treatment at IC50 concentration for 24 h
Description: The cells were left to attach to 10 mm Ø glass slides for 24 h, at a confluence of 3 × 10^4 cells/glass slide. The slides were incubated for 10 min in acridine orange 1 µM in PBS 0.01M, and then the slides were investigated with an epifluorescence microscope Optika 510LD1 with 5 MP CCD cameras at 525 nm (green filter).

[6] = Scavenging of hydrogen peroxide by cyclic voltammetry on Au SPE; conditions: 0.5 mM H2O2, 0.5 mM compound, 0.1 M KCl
Description: as §1
The anodic oxidation of H2O2 was used to determine the antioxidant character of compounds in different samples. Gold-based SPEs purchased from Dropsens were used as working electrode for monitoring the change in the oxidation peak of hydrogen peroxide due to the addition of different amounts of the novel compounds. The oxidation signal of H2O2 obtained at the sweep of the potential in the range from −0.5 to 1.2 V on the gold electrode can be observed in Figure A6. The scavenging abilities of compounds from 1 to 8 on […] are compared in this figure. The addition of an antioxidant, by its ability to consume H2O2, determines the decrease of anodic peak characteristic for H2O2. […]

[7] = compound 0.5 mM + Fe^3+/Fe^2+ (0.5 mM potassium ferricyanide), 1st Eox column
[8] = compound 0.5 mM + Fe^3+/Fe^2+ (0.5 mM potassium ferricyanide), 1st Iox column
[9] = compound + Fe^3+/Fe^2+, 1st Ered
[10] = compound + Fe^3+/Fe^2+, 1st Ired
[11] = compound + Fe^3+/Fe^2+, 2nd Eox
[12] = compound + Fe^3+/Fe^2+, 2nd Ered column
[13] = compound + Fe^3+/Fe^2+, 2nd Iox column
[14] = compound + Fe^3+/Fe^2+, 2nd Ired
[15] = compound + Fe^3+/Fe^2+, 3rd Iox column
[16] = compound + Fe^3+/Fe^2+, 5th Eox
[17] = compound + Fe^3+/Fe^2+, 5th Iox column
[18] = compound alone 0.5 mM in 0.1 M HClO4, 2nd Eox
[19] = compound alone 0.5 mM in 0.1 M HClO4, 2nd Ered column
[20] = compound alone 0.5 mM in 0.1 M HClO4, 2nd Iox column
[21] = compound alone 0.5 mM in 0.1 M HClO4, 2nd Ired
[22] = compound alone 0.5 mM in 0.1 M HClO4, 3rd Eox column
[23] = compound alone 0.5 mM in 0.1 M HClO4, 3rd Iox column
[24] = compound alone 0.5 mM in 0.1 M HClO4, 5th Eox
[25] = compound alone 0.5 mM in 0.1 M HClO4, 5th Iox column
[26] = compound + Fe^3+/Fe^2+, 3rd Eox column
[27] = compound + Fe^3+/Fe^2+, 4th Eox column
[28] = compound + Fe^3+/Fe^2+, 4th Iox column
[29] = compound alone 0.5 mM in 0.1 M HClO4, 4th Eox column
[30] = compound alone 0.5 mM in 0.1 M HClO4, 4th Iox column

| Compound | Eox (V) [4, 7] [V] | Iox (μA) [4, 8] [μA] | Ered (V) [4, 9] [V] | Ired (μA) [4, 10] [μA] | Eox (V) [4, 11] [V] | Ered (V) [4, 12] [V] | Iox (μA) [4, 13] [μA] | Ired (μA) [4, 14] [μA] | Iox (μA) [4, 15] [μA] | Eox (V) [4, 16] [V] | Iox (μA) [4, 17] [μA] | Eox (V) [4, 18] [V] | Ered (V) [4, 19] [V] | Iox (μA) [4, 20] [μA] | Ired (μA) [4, 21] [μA] | Eox (V) [4, 22] [V] | Iox (μA) [4, 23] [μA] | Eox (V) [4, 24] [V] | Iox (μA) [4, 25] [μA] | Eox (V) [4, 27] [V] | other results |
| --- | --- | --- | --- | --- | --- | --- | --- | --- | --- | --- | --- | --- | --- | --- | --- | --- | --- | --- | --- | --- | --- |
| C/C(=N\Nc1nc(C)cs1)c1ccc(O)cc1O [Compound 5a, Dihydroxy-Phenyl-Thiazol-Hydrazinium chloride] | 0.152 | 3.69 | 0.091 | −7.33 | 0.308 | 0.323 | 16.21 | −0.99 | 4.14 | 0.903 | 3.82 | 0.308 | 0.318 | 8.83 | −1.23 | 0.573 | 5.23 | 0.997 | 9.78 | – | Chelation Capacity (%), ferrous ions ([1]; 50 µg/mL): 0.27 * %; Chelation Capacity (%), ferrous ions ([1]; 100 µg/mL): 5.06 * %; % of DPPH˙ Scavenged ([2]; 1 µg/mL): 13.11 * %; % of DPPH˙ Scavenged ([2]; 1.5 µg/mL): 20.68 * %; % of DPPH˙ Scavenged ([2]; 2 µg/mL): 28.87 * %; % of DPPH˙ Scavenged ([2]; 3 µg/mL): 48.22 * %; % of DPPH˙ Scavenged ([2]; 5 µg/mL): 79.92 * %; IC50 ([2]; DPPH˙ scavenging): 3.20 * µg/mL; % of ABTS˙^+ Scavenged ([3]; 0.5 µg/mL): 32.42 * %; % of ABTS˙^+ Scavenged ([3]; 0.75 µg/mL): 37.23 * %; % of ABTS˙^+ Scavenged ([3]; 1 µg/mL): 41.36 * %; % of ABTS˙^+ Scavenged ([3]; 1.5 µg/mL): 49.77 * %; % of ABTS˙^+ Scavenged ([3]; 2.5 µg/mL): 70.60 * %; IC50 ([3]; ABTS˙^+ scavenging): 1.45 * µg/mL |
| Cc1csc(N/N=C/c2ccc(O)cc2O)n1.Cl [Compound 5b, (E)-2-(2,4-dihydroxybenzylidene)-1-(4-methylthiazol-2-yl)hydrazin-1-ium chloride] | 0.152 | 5.57 | 0.093 | −8.66 | 0.342 | 0.323 | 22.3 | −1.52 | 1.20 | 0.806 | 8.68 | 0.355 | 0.327 | 15.68 | −1.56 | – | – | – | – | 0.506 | Eox (V) [4, 26]: 0.505 V; Iox (μA) [4, 28]: 8.68 μA |
| Br.C/C(=N\Nc1nc(-c2ccccc2)cs1)c1ccc(O)cc1O [Compound 6a, (E)-2-(1-(2,4-dihydroxyphenyl)ethylidene)-1-(4-phenylthiazol-2-yl)hydrazin-1-ium bromide] | – | – | 0.142 | −5.88 | 0.223 | – | 2.74 | – | 3.82 | – | – | – | – | 3.04 | – | 0.586 | 6.79 | – | – | – | Eox (V) [4, 26]: 0.424 V |
| Br.Oc1ccc(/C=N/Nc2nc(-c3ccccc3)cs2)c(O)c1 [Compound 6b, (E)-2-(2,4-dihydroxybenzylidene)-1-(4-phenylthiazol-2-yl)hydrazin-1-ium bromide] | 0.203 | 2.48 | 0.149 | −8.26 | 0.325 | – | 44.78 | – | – | 0.879 | 21.84 | 0.386 | – | 37.55 | – | – | – | 0.894 | 8.86 | – | – |
| Br.C/C(=N\Nc1nc(-c2ccc(O)c(C(N)=O)c2)cs1)c1ccc(O)cc1O [Compound 7a, (E)-1-(4-(3-carbamoyl-4-hydroxyphenyl)thiazol-2-yl)-2-(1-(2,4-dihydroxyphenyl)ethylidene)hydrazin-1-ium bromide] | – | – | 0.164 | −7.23 | 0.23 | – | 4.35 | – | 1.75 | – | – | – | – | 4.37 | – | – | 1.95 | – | – | – | morphological effect on HaCaT cells, acridine orange staining [5]: induced a necroptotic aspect of the cells |
| Br.NC(=O)c1cc(-c2csc(N/N=C/c3ccc(O)cc3O)n2)ccc1O [Compound 7b, (E)-1-(4-(3-carbamoyl-4-hydroxyphenyl)thiazol-2-yl)-2-(2,4-dihydroxybenzylidene) hydrazin-1-ium bromide] | 0.205 | 1.39 | 0.161 | −6.8 | 0.305 | – | 6.08 | – | – | 0.926 | 6.34 | 0.347 | – | 2.07 | – | – | – | 1.065 | 2.64 | – | – |
| C/C(=N\Nc1nc(-c2ccc(O)c(O)c2)cs1)c1ccc(O)cc1O.Cl [Compound 8a, (E)-2-(1-(2,4-dihydroxyphenyl)ethylidene)-1-(4-(3,4-dihydroxyphenyl)thiazol-2-yl)hydrazin-1-ium chloride] | 0.072 | 0.17 | 0.054 | −8.37 | 0.186 | – | 17.73 | – | – | 0.87 | 18.64 | 0.195 | 0.296 | 2.32 | −5.09 | 0.330 | 7.42 | 0.985 | 3.45 | 0.452 | scavenging effect on H2O2 [6]: highest scavenging effect; morphological effect on HaCaT cells, acridine orange staining [5]: induced nuclear fragmentation; scavenging effect on ferric ion ([4]; 0.5 mM ferricyanide + 0.5 mM compound): highest scavenging effect; Iox (μA) [4, 28]: 12.93 μA; Eox (V) [4, 29]: 0.460 V; Iox (μA) [4, 30]: 7.70 μA |
| Cl.Oc1ccc(/C=N/Nc2nc(-c3ccc(O)c(O)c3)cs2)c(O)c1 [Compound 8b, (E)-2-(2,4-dihydroxybenzylidene)-1-(4-(3,4-dihydroxyphenyl)thiazol-2-yl)hydrazin-1-ium chloride] | 0.083 | 0.34 | 0.079 | −8.01 | 0.227 | 0.279 | 28.09 | −2.81 | – | 0.79 | 15.19 | 0.249 | 0.303 | 1.02 | −1.97 | 0.349 | 1.76 | 0.989 | 1.17 | 0.449 | Iox (μA) [4, 28]: 28.48 μA; Eox (V) [4, 29]: 0.450 V; Iox (μA) [4, 30]: 2.29 μA |
